Measurements as given in ChEMBL document CHEMBL1201862, “PubChem BioAssay data set” (2004).
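48-hour exposure; five concentrations; linearly interpolated endpoints. The concentration for 50% growth inhibition is given as GI50.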 The source made the active and inactive calls. Cut-off read from the data, not from the text of the source: active = GI50 up to about 1.1 µM and inactive = higher.

What was measured:
Experiment in all cases: NCI anticancer screen, dose series, 48 h
[1] = tested on: PC-3
[2] = tested on: MOLT-4
[3] = tested on: HL-60
[4] = tested on: NCI-H23
[5] = tested on: SF-295
[6] = tested on: SNB-19
[7] = tested on: HOP-92
[8] = tested on: K562
[9] = tested on: SK-MEL-2
[10] = tested on: MCF7
[11] = tested on: KM12
[12] = tested on: RXF 393
[13] = tested on: OVCAR-3
[14] = tested on: IGROV-1
[15] = tested on: OVCAR-4
[16] = tested on: A498
[17] = tested on: MDA-N
[18] = tested on: 786-0
[19] = tested on: T47D
[20] = tested on: Hs-578T

| SMILES | GI50 [1] | GI50 [2] | GI50 [3] | GI50 [4] | GI50 [5] | GI50 [6] | GI50 [7] | GI50 [8] | GI50 [9] | GI50 [10] | GI50 [11] | GI50 [12] | GI50 [13] | GI50 [14] | GI50 [15] | GI50 [16] | GI50 [17] | GI50 [18] | GI50 [19] | GI50 [20] |
| --- | --- | --- | --- | --- | --- | --- | --- | --- | --- | --- | --- | --- | --- | --- | --- | --- | --- | --- | --- | --- |
| CCCCCCOC(=O)/C=C/[C@]1(CO)C/C(=C/CC(C(C)C)C(C)C)C(=O)O1 | 11.5 µM (inactive) | 1.58 µM (inactive) | 2.7 µM (inactive) | 12.2 µM (inactive) | 10.4 µM (inactive) | 10.5 µM (inactive) | 12.1 µM (inactive) | 0.406 µM (active) | 16.2 µM (inactive) | 16 µM (inactive) | 16 µM (inactive) | 18.2 µM (inactive) | 11.9 µM (inactive) | 15.1 µM (inactive) | 19.1 µM (inactive) | 4.82 µM (inactive) | 1.39 µM (inactive) | 4.36 µM (inactive) | 16.8 µM (inactive) | 4.75 µM (inactive) |
| CCOP(=O)(CCC(O)CNc1nc(N)nc(Cl)c1/N=N/c1ccc(Cl)cc1)OCC (stereo not given) | 12.4 µM (inactive) | 6.95 µM (inactive) | 3.5 µM (inactive) | 17 µM (inactive) | 14.3 µM (inactive) | – | 0.377 µM (active) | 13.6 µM (inactive) | 11.6 µM (inactive) | 11.5 µM (inactive) | 19.1 µM (inactive) | 6.31 µM (inactive) | 10.7 µM (inactive) | 15.2 µM (inactive) | 5.24 µM (inactive) | 10.1 µM (inactive) | 12.4 µM (inactive) | 7.93 µM (inactive) | 16.9 µM (inactive) | 5.58 µM (inactive) |
| O=[N+]([O-])c1ccc(-n2nc3ccc4c(no[n+]4[O-])c3[n+]2[O-])c([N+](=O)[O-])c1 | 8 µM (inactive) | 1.95 µM (inactive) | 1.95 µM (inactive) | 2.19 µM (inactive) | 4.53 µM (inactive) | 6.24 µM (inactive) | 2.96 µM (inactive) | 2.14 µM (inactive) | 3.56 µM (inactive) | 1.9 µM (inactive) | 1.79 µM (inactive) | 3.27 µM (inactive) | 2.47 µM (inactive) | 1.71 µM (inactive) | 1.68 µM (inactive) | 5.45 µM (inactive) | 2.08 µM (inactive) | 2.68 µM (inactive) | 2.49 µM (inactive) | 2.81 µM (inactive) |
| C/C(=N\NC(N)=S)c1nc2cccnc2[nH]1 | 81.3 µM (inactive) | 34.8 µM (inactive) | 32.6 µM (inactive) | – | 84.9 µM (inactive) | > 76.7 µM (inactive) | 98.2 µM (inactive) | 71 µM (inactive) | > 100 µM (inactive) | 26.8 µM (inactive) | 67.5 µM (inactive) | > 100 µM (inactive) | 31.8 µM (inactive) | 82 µM (inactive) | 25.6 µM (inactive) | > 100 µM (inactive) | > 100 µM (inactive) | 51.8 µM (inactive) | 45.1 µM (inactive) | > 100 µM (inactive) |
| C=CCC1(O)c2cccc(O)c2C(=O)c2cccc(O)c21 (stereo not given) | 16.9 µM (inactive) | 11.3 µM (inactive) | 11.7 µM (inactive) | 8.09 µM (inactive) | 9.35 µM (inactive) | – | 17.5 µM (inactive) | 6.71 µM (inactive) | 12 µM (inactive) | 19.6 µM (inactive) | 17.3 µM (inactive) | 15.7 µM (inactive) | 12.3 µM (inactive) | 23.6 µM (inactive) | 29.2 µM (inactive) | 13.3 µM (inactive) | 8.22 µM (inactive) | 19.3 µM (inactive) | 4.12 µM (inactive) | 14.9 µM (inactive) |
| CCC(=O)N(c1ccccc1)C(C)CN1CCC(O)(c2ccccc2)CC1 (stereo not given) | > 100 µM (inactive) | > 100 µM (inactive) | > 100 µM (inactive) | > 100 µM (inactive) | > 100 µM (inactive) | > 100 µM (inactive) | > 100 µM (inactive) | 74.1 µM (inactive) | > 100 µM (inactive) | > 100 µM (inactive) | – | > 100 µM (inactive) | > 100 µM (inactive) | > 100 µM (inactive) | > 100 µM (inactive) | > 100 µM (inactive) | > 100 µM (inactive) | > 100 µM (inactive) | > 100 µM (inactive) | > 100 µM (inactive) |
| C=CCOC(=O)N1c2ccc(O)cc2[C@@]23O[C@@]24[C@@H]1C#C/C=C\C#C[C@]3(O)C(=O)C[C@@H]4C | 34.8 µM (inactive) | 14.8 µM (inactive) | 37.8 µM (inactive) | 22.7 µM (inactive) | > 100 µM (inactive) | > 100 µM (inactive) | 72.9 µM (inactive) | 59.7 µM (inactive) | 77.8 µM (inactive) | 61.8 µM (inactive) | > 100 µM (inactive) | > 100 µM (inactive) | – | 62.8 µM (inactive) | 0.0231 µM (active) | 42.8 µM (inactive) | > 100 µM (inactive) | 13.9 µM (inactive) | > 100 µM (inactive) | 47.5 µM (inactive) |
